Results published in US8426408B2, “Pyrimidine inhibitors of kinases” (AbbVie Inc., priority 2009, dated 2013).

Columns and labels:
Aurora A = molecular target: T1, Aurora A (Homo sapiens, UniProt O14965); assay: Aurora A enzyme inhibition (time-resolved fluorescence, STK substrate-2); format: biochemical; settings: 1 mM ATP
T1 sequence (O14965 1-403): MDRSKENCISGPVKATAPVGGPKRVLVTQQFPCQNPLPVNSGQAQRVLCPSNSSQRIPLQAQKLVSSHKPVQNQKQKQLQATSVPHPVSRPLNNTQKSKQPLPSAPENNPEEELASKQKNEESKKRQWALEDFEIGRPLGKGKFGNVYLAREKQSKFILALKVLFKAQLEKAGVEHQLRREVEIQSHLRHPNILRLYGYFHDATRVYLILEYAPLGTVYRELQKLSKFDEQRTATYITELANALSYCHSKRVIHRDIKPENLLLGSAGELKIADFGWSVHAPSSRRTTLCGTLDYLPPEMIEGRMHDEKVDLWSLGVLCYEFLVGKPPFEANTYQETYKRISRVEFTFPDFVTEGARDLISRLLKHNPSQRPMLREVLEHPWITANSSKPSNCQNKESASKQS
Outline: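 Active enzyme incubated 1 h with biotinylated STK substrate-2, 1 mM ATP and inhibitor in Hepes pH 7.4 with MgCl2, orthovanadate and Triton X-100. EDTA stop; phosphopeptide detected by Eu-cryptate anti-phospho-STK/SA-XL665 TR-FRET (665/615 nm ratio); IC50 by exponential fit.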

KDR [1] = molecular target: T2, KDR (Homo sapiens, UniProt P35968); assay: KDR HTRF in vitro kinase assay; format: biochemical; parameters: purified enzyme (His6-KDR 789-1354, MW 63 kD); His6 (N); settings: 1 mM ATP; read-out: KDR enzyme inhibition data (Ki)
Outline: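 His6-KDR 789-1354 (7 ng/well) with 0.5 μM biotinylated peptide substrate and 1 mM ATP in HEPES pH 7.1, MgCl2/MnCl2, 60 min at room temperature. EDTA-quenched, detected by streptavidin-XL-665 plus Eu-kryptate anti-phosphotyrosine HTRF after 3 h; IC50 from 620/665 nm ratio.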
Target sequence in this assay (P35968 789-1354): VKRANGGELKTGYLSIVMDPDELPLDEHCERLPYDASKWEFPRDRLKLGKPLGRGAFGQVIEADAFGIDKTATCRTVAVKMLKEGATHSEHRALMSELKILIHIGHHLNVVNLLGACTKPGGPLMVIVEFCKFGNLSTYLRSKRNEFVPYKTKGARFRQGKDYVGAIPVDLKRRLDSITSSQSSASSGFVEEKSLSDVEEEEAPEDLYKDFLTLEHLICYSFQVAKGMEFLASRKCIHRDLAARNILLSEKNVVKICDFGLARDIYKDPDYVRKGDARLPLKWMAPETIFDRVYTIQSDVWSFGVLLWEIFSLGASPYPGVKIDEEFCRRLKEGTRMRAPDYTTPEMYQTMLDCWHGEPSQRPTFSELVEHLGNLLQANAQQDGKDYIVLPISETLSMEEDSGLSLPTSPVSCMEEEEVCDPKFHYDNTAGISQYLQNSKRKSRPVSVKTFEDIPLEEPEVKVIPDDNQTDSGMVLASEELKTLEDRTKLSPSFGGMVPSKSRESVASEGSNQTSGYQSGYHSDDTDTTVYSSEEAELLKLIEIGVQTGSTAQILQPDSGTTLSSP

NCI-H1299 cells = assay: Induction of polyploidy in H1299; format: cell-based, Human; settings: NCI-H1299, 48 hours
Procedure: To determine the induction of polyploidy in H1299 cells, NCI-H1299 were seeded (4K/well) into 96-well culture plates (tissue culture grade, black, flat-clear bottom) and incubated overnight to produce cell-to-plate adherence. Inhibitors at varying concentrations were added into duplicate wells containing cells and culture media (RPMI 1640, 10% fetal calf serum) and incubated at 37 C for 48 hours. The plates were then washed with PBS and the adherent cells fixed by incubating with 3% formalin for 1 hour. After washing four times with PBS, the cells were then stained with Hoechst and subjected to fluorescent (360 i/460e) microscopic high content analysis to determine the effect of inhibitors on nuclear size. Polyploid cells (≧4N) were defined as those having nuclear area>750μ^2. Potency was expressed as the concentration of inhibitor necessary to induce polyploidy in 15% of cells (EC15) and was calculated from least squares analysis of the log dose-response.

Aurora B = molecular target: T3, Aurora B (Homo sapiens, UniProt Q96GD4); assay: Aurora B enzyme inhibition (time-resolved fluorescence, histone H3 peptide); format: biochemical; settings: 1 mM ATP
T3 construct: Active Aurora B enzyme (recombinant residues 1-344)
T3 sequence (Q96GD4 whole entry, the tested form may be a part): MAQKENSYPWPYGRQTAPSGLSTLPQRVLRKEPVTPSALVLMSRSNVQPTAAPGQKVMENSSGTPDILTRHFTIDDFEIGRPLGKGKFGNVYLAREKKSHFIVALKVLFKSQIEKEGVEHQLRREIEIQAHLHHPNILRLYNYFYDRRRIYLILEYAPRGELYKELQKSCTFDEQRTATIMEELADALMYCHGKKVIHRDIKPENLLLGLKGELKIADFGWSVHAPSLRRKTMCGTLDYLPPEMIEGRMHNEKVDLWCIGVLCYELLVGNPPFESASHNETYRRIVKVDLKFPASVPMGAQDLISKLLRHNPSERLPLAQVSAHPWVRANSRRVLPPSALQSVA
T3 sequence (Q9NQS7 826-918 partner limits assumed): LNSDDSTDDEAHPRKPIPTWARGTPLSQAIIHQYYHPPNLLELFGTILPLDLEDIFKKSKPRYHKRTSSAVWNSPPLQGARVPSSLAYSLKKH
Outline: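 Recombinant Aurora B (residues 1-344) with GST-INCENP phosphorylated biotinylated histone H3 (1-21) peptide at 1 mM ATP in HEPES pH 7.4 with MgCl2, orthovanadate and Triton X-100 for 1 h. After EDTA stop, the phosphopeptide was detected by TR-FRET (Eu-cryptate anti-phospho-H3 / SA-APC, 665/615 nm ratio). IC50 from an exponential fit.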

KDR [2] = molecular target: T2, KDR; assay: KDR cellular assay (KDR receptor phosphorylation ELISA); format: cell-based; parameters: expressed in transfected cells; host or cells: 3T3 (embryonic mouse) cells; settings: KDR transfected 3T3 (embryonic mouse) cells, VEGF stimulated; read-out: IC50 inhibition of KDR phosphorylation
Outline: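 KDR-transfected mouse 3T3 cells treated 20 min at 37° C with half-log compound dilutions, then stimulated 10 min with VEGF (100 ng/ml solution). Lysates captured on anti-KDR plates; phosphorylation by biotin antibody/streptavidin-HRP ELISA at 450 nm. IC50 by non-linear regression.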
Target sequence in this assay (P35968 20-1356): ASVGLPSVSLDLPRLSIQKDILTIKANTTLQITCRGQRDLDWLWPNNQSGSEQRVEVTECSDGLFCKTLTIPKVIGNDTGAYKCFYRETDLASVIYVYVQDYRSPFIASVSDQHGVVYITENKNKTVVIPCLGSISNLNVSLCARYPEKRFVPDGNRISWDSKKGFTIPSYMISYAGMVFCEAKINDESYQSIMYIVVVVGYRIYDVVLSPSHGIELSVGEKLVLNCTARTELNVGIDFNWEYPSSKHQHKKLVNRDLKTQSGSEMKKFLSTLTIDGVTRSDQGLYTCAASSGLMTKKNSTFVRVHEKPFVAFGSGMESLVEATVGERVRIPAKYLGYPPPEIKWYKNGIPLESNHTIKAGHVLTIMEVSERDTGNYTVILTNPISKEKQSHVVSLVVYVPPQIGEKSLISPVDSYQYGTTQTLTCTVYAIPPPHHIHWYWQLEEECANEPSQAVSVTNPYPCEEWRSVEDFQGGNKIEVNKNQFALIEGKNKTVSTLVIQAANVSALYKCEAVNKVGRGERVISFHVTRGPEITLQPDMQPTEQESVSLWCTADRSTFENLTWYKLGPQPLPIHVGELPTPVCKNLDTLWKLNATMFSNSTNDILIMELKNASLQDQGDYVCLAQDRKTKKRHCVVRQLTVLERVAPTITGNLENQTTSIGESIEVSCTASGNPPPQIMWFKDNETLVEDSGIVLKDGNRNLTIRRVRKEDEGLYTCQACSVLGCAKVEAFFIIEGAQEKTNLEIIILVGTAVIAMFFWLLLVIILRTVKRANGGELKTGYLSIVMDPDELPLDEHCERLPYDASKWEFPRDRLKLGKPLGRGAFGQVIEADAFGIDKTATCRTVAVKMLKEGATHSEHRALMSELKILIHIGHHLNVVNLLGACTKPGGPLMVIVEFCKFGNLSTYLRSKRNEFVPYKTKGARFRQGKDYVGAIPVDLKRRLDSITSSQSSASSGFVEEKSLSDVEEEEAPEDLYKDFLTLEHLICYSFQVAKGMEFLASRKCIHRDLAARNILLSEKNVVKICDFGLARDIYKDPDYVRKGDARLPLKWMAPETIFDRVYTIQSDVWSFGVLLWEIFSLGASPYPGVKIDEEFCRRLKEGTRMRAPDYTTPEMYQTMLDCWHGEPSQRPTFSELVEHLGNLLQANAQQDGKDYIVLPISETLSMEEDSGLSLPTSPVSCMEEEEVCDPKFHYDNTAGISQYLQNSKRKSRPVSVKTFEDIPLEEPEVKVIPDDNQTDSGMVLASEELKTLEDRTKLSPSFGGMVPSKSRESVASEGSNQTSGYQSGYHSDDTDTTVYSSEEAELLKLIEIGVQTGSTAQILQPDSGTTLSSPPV

Molecule | Ki (Aurora A) | Ki (KDR [1]) | EC15 (concentration of inhibitor necessary to induce polyploidy in 15% of cells) (NCI-H1299 cells) | Ki (Aurora B) | EC15 (NCI-H1299 cells; Homo sapiens, read-out: EC15 (concentration of inhibitor necessary to induce polyploidy in 15% of cells)) | IC50 (KDR [2])
Cn1cc(Nc2ncc(Cl)c(N[C@@H]3[C@H](C(N)=O)[C@@H]4C=C[C@H]3C4)n2)cn1.Cn1cc(Nc2ncc(Cl)c(N[C@H]3[C@@H](C(N)=O)[C@H]4C=C[C@@H]3C4)n2)cn1 (mixture of isomers) [Example 120, (1S,2R,3S,4R)-3-({5-chloro-2-[(1-methyl-1H-pyrazol-4-yl)amino]pyrimidin-4-yl}amino)bicyclo[2.2.1]hept-5-ene-2-carboxamide and (1R,2S,3R,4S)-3-({5-chloro-2-[(1-methyl-1H-pyrazol-4-yl)amino]pyrimidin-4-yl}amino)bicyclo[2.2.1]hept-5-ene-2-carboxamide] | < 100 nM | < 100 nM | B (“B” represents an EC15 of between 0.1 μM and 1 μM) | < 100 nM | – | –
CCn1cc(Nc2ncc(F)c(N[C@@H]3[C@H]4CC[C@H](C4)[C@@H]3C(N)=O)n2)cn1.CCn1cc(Nc2ncc(F)c(N[C@H]3[C@@H]4CC[C@@H](C4)[C@H]3C(N)=O)n2)cn1 (mixture of isomers) [Example 13, (1R,2S,3R,4S)-3-({2-[(1-ethyl-1H-pyrazol-4-yl)amino]-5-fluoropyrimidin-4-yl}amino)bicyclo[2.2.1]heptane-2-carboxamide and (1S,2R,3S,4R)-3-({2-[(1-ethyl-1H-pyrazol-4-yl)amino]-5-fluoropyrimidin-4-yl}amino)bicyclo[2.2.1]heptane-2-carboxamide] | < 100 nM | 100 to 1000 nM | B (“B” represents an EC15 of between 0.1 μM and 1 μM) | < 100 nM | – | –
Cn1cc(Nc2ncc(C(F)(F)F)c(N[C@@H]3C[C@H]4CC[C@@H]3C4)n2)cn1.Cn1cc(Nc2ncc(C(F)(F)F)c(N[C@H]3C[C@@H]4CC[C@H]3C4)n2)cn1 (mixture of isomers) [Example 23, N^4-[(1S,2S,4R)-bicyclo[2.2.1]hept-2-yl]-N^2-(1-methyl-1H-pyrazol-4-yl)-5-(trifluoromethyl)pyrimidine-2,4-diamine and N^4-[(1R,2R,4S)-bicyclo[2.2.1]hept-2-yl]-N^2-(1-methyl-1H-pyrazol-4-yl)-5-(trifluoromethyl)pyrimidine-2,4-diamine] | 100 to 1000 nM | 100 to 1000 nM | B (“B” represents an EC15 of between 0.1 μM and 1 μM) | < 100 nM | – | –
Cc1cnc(Nc2cnn(C)c2)nc1N[C@@H]1[C@H](C(N)=O)[C@H]2C=C[C@@H]1C2.Cc1cnc(Nc2cnn(C)c2)nc1N[C@H]1[C@@H](C(N)=O)[C@@H]2C=C[C@H]1C2 (mixture of isomers) [Example 17, (1S,2S,3R,4R)-3-({5-methyl-2-[(1-methyl-1H-pyrazol-4-yl)amino]pyrimidin-4-yl}amino)bicyclo[2.2.1]hept-5-ene-2-carboxamide and (1R,2R,3S,4S)-3-({5-methyl-2-[(1-methyl-1H-pyrazol-4-yl)amino]pyrimidin-4-yl}amino)bicyclo[2.2.1]hept-5-ene-2-carboxamide] | 100 to 1000 nM | 100 to 1000 nM | A (“A” represents an EC15 of less than 0.1 μM) | < 100 nM | – | –
NC(=O)[C@@H]1[C@H]2CC[C@H](C2)[C@@H]1Nc1nc(Nc2cnn(CCO)c2)ncc1F.NC(=O)[C@H]1[C@@H]2CC[C@@H](C2)[C@H]1Nc1nc(Nc2cnn(CCO)c2)ncc1F (mixture of isomers) [Example 14, (1R,2S,3R,4S)-3-[(5-fluoro-2-{[1-(2-hydroxyethyl)-1H-pyrazol-4-yl]amino}pyrimidin-4-yl)amino]bicyclo[2.2.1]heptane-2-carboxamide and (1S,2R,3S,4R)-3-[(5-fluoro-2-{[1-(2-hydroxyethyl)-1H-pyrazol-4-yl]amino}pyrimidin-4-yl)amino]bicyclo[2.2.1]heptane-2-carboxamide] | 100 to 1000 nM | 1000 to 5000 nM | B (“B” represents an EC15 of between 0.1 μM and 1 μM) | < 100 nM | – | –
CCn1cc(Nc2ncc(F)c(N[C@@H]3[C@H](C(N)=O)[C@H]4C=C[C@@H]3C4)n2)cn1.CCn1cc(Nc2ncc(F)c(N[C@H]3[C@@H](C(N)=O)[C@@H]4C=C[C@H]3C4)n2)cn1 (mixture of isomers) [Example 8, (1S,2S,3R,4R)-3-({2-[(1-ethyl-1H-pyrazol-4-yl)amino]-5-fluoropyrimidin-4-yl}amino)bicyclo[2.2.1]hept-5-ene-2-carboxamide and (1R,2R,3S,4S)-3-({2-[(1-ethyl-1H-pyrazol-4-yl)amino]-5-fluoropyrimidin-4-yl}amino)bicyclo[2.2.1]hept-5-ene-2-carboxamide] | < 100 nM | 100 to 1000 nM | A (“A” represents an EC15 of less than 0.1 μM) | < 100 nM | – | –
Cn1cc(Nc2ncc(F)c(N[C@@H]3[C@H]4CC[C@H](C4)[C@@H]3C(N)=O)n2)cn1.Cn1cc(Nc2ncc(F)c(N[C@H]3[C@@H]4CC[C@@H](C4)[C@H]3C(N)=O)n2)cn1 (mixture of isomers) [Example 12, (1R,2S,3R,4S)-3-({5-fluoro-2-[(1-methyl-1H-pyrazol-4-yl)amino]pyrimidin-4-yl}amino)bicyclo[2.2.1]heptane-2-carboxamide and (1S,2R,3S,4R)-3-({5-fluoro-2-[(1-methyl-1H-pyrazol-4-yl)amino]pyrimidin-4-yl}amino)bicyclo[2.2.1]heptane-2-carboxamide] | 100 to 1000 nM | 100 to 1000 nM | B (“B” represents an EC15 of between 0.1 μM and 1 μM) | < 100 nM | – | –
Cn1cc(Nc2nccc(NC3C4C=CC(C4)C3C(N)=O)n2)cn1 (mixture of isomers) [Example 2, (1S,2S,3R,4R)-3-({2-[(1-methyl-1H-pyrazol-4-yl)amino]pyrimidin-4-yl}amino)bicyclo[2.2.1]hept-5-ene-2-carboxamide and (1R,2R,3S,4S)-3-({2-[(1-methyl-1H-pyrazol-4-yl)amino]pyrimidin-4-yl}amino)bicyclo[2.2.1]hept-5-ene-2-carboxamide] | 1000 to 5000 nM | > 5000 nM | – | 100 to 1000 nM | < 100 nM | –
(1S,2S,3R,4R)-3-({5-fluoro-2-[(1-methyl-1H-pyrazol-4-yl)amino]pyrimidin-4-yl}amino)bicyclo[2.2.1]hept-5-ene-2-carboxamide and (1R,2R,3S,4S)-3-({5-fluoro-2-[(1-methyl-1H-pyrazol-4-yl)amino]pyrimidin-4-yl}amino)bicyclo[2.2.1]hept-5-ene-2-carboxamide [Example 1] | < 100 nM | 100 to 1000 nM | B (“B” represents an EC15 of between 0.1 μM and 1 μM) | < 100 nM | – | –
5-chloro-N^2-(1H-indazol-5-yl)-N^2-{1-[(3R)-pyrrolidin-3-yl]-1H-pyrazol-4-yl}pyrimidine-2,4-diamine [Example 181] | < 100 nM | < 100 nM | – | < 100 nM | – | 100 to 1000 nM
Cn1cc(Nc2ncc(C(F)(F)F)c(Nc3cn(C)nc3C(N)=O)n2)cn1 [Example 153, 1-methyl-4-({2-[(1-methyl-1H-pyrazol-4-yl)amino]-5-(trifluoromethyl)pyrimidin-4-yl}amino)-1H-pyrazole-3-carboxamide] | < 100 nM | 100 to 1000 nM | – | < 100 nM | – | 100 to 1000 nM
